Measurements: ChEMBL document CHEMBL1201862, “PubChem BioAssay data set” (2004)
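Step 1: Grow cells in 96-well plates. Step 2: Expose to compound for 48 hours at 5 concentrations. Step 3: Interpolate endpoints linearly; if unreached, use highest concentration. At the GI50, growth is halved.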 Calls of active or inactive are those of the source. Cut-off read from the data, not from the text of the source: active = GI50 up to about 1.1 µM and inactive = higher.

Tests used:
Test in all cases: DTP human tumour cell line panel, 48 h
[1] = tested on: ACHN
[2] = tested on: HT-29
[3] = tested on: K562
[4] = tested on: KM12
[5] = tested on: LOX IMVI
[6] = tested on: M14
[7] = tested on: MDA-MB-435
[8] = tested on: MDA-N
[9] = tested on: MOLT-4
[10] = tested on: OVCAR-4
[11] = tested on: OVCAR-8
[12] = tested on: PC-3
[13] = tested on: RPMI-8226
[14] = tested on: RXF 393
[15] = tested on: SK-MEL-28
[16] = tested on: TK-10
[17] = tested on: UACC-257
[18] = tested on: UACC-62
[19] = tested on: SNB-19
[20] = tested on: UO-31

Measured: GI50

O=C1C2=Cc3ccccc3OC2(O)Oc2cc3ccccc3cc21 (stereo not drawn)
inactive: [1] 87.9 µM | [2] > 100 µM | [3] > 100 µM | [4] 41.4 µM | [5] > 100 µM | [6] > 100 µM | [7] > 100 µM | [8] > 100 µM | [9] > 100 µM | [10] 49.7 µM | [11] > 100 µM | [12] > 100 µM | [13] > 100 µM | [14] 58.1 µM | [15] > 100 µM | [16] > 100 µM | [17] > 100 µM | [18] > 100 µM

O=C1NC(NCc2ccc(F)cc2)=N/C1=C\c1ccccc1Cl
inactive: [1] 20.7 µM | [2] 15 µM | [3] 11.9 µM | [4] 18.1 µM | [5] 14.7 µM | [6] 15.6 µM | [7] 17.9 µM | [8] 16.8 µM | [9] 12.9 µM | [10] 23.9 µM | [11] 14.4 µM | [12] 15.9 µM | [14] 19.6 µM | [15] 23.6 µM | [19] 19.8 µM | [16] 21.5 µM | [17] 24.9 µM | [18] 15.7 µM

COC(=O)N1C[C@@]2(C=CC3(CC2)OCCO3)c2ccccc21
inactive: [1] > 100 µM | [2] 28.2 µM | [3] 48 µM | [4] 37.8 µM | [5] > 100 µM | [6] > 100 µM | [7] 23.7 µM | [8] 51.1 µM | [9] 58.3 µM | [10] > 100 µM | [11] 39.5 µM | [12] 63.7 µM | [13] 61.1 µM | [15] 67.1 µM | [19] > 100 µM | [16] > 100 µM | [17] 71.3 µM | [18] 65.5 µM | [20] > 100 µM

CCC(C#N)NCc1ccc(CNC(C#N)CC)cc1 (stereo not drawn)
inactive: [1] > 100 µM | [2] > 100 µM | [3] > 100 µM | [4] > 100 µM | [5] > 100 µM | [6] > 100 µM | [7] > 100 µM | [8] > 100 µM | [9] > 100 µM | [10] > 100 µM | [11] > 100 µM | [12] > 100 µM | [14] > 100 µM | [15] > 100 µM | [19] > 100 µM | [16] > 100 µM | [17] > 100 µM | [18] 86.5 µM | [20] 95.7 µM

Cc1ccc(C(=O)N/N=C(\N=N\c2ccccc2Cl)c2ccc(N(C)C)cc2)cc1
inactive: [1] 13.3 µM | [2] 33.1 µM | [3] 17.1 µM | [4] 21.9 µM | [5] 43.6 µM | [6] 42.7 µM | [7] 10.5 µM | [8] 11.5 µM | [9] 20 µM | [10] 7.33 µM | [11] 61.5 µM | [12] 49 µM | [13] 23.7 µM | [15] > 100 µM | [19] 28.1 µM | [16] > 100 µM | [17] 27.5 µM | [18] 4.55 µM | [20] 29.4 µM

c1cc2cc(c1)CN1CCNCCN(CCNCC1)Cc1cccc(c1)CN1CCNCCN(CCNCC1)C2
inactive: [1] > 100 µM | [2] > 100 µM | [3] > 100 µM | [4] > 100 µM | [5] > 100 µM | [6] > 100 µM | [7] > 100 µM | [8] > 100 µM | [9] > 100 µM | [10] > 100 µM | [11] > 100 µM | [12] > 100 µM | [13] > 100 µM | [15] > 100 µM | [19] > 100 µM | [16] > 100 µM | [17] > 100 µM | [18] > 100 µM | [20] > 100 µM

COc1ccccc1NC1=NCC(C)S1 (stereo not drawn)
inactive: [1] > 100 µM | [2] > 100 µM | [3] > 100 µM | [4] > 100 µM | [5] > 100 µM | [6] > 100 µM | [7] > 100 µM | [8] > 100 µM | [9] > 100 µM | [11] > 100 µM | [12] > 100 µM | [13] > 100 µM | [14] 33.8 µM | [15] > 100 µM | [19] > 100 µM | [16] > 100 µM | [17] > 100 µM | [18] > 100 µM | [20] > 100 µM

O=c1[nH]/c(=C/c2ccc(OCc3ccccc3)cn2)c(=O)[nH]/c1=C/c1cccnc1
inactive: [5] 1.95 µM | [10] 1.25 µM | [16] 2.18 µM
active: [1] 0.728 µM | [2] 0.759 µM | [3] 0.318 µM | [4] 0.308 µM | [6] 0.344 µM | [7] 0.0845 µM | [8] 0.106 µM | [9] 0.361 µM | [11] 1.08 µM | [12] 0.423 µM | [13] 0.628 µM | [14] 0.574 µM | [19] 0.718 µM | [18] 0.192 µM

Cc1cc2nc(-c3c(F)cccc3F)n(Cc3c(F)cccc3F)c2cc1C
inactive: [1] 14.3 µM | [2] 15.5 µM | [3] 11 µM | [4] 14.8 µM | [5] 14.3 µM | [6] 12.2 µM | [7] 14.7 µM | [8] 16 µM | [9] 13.1 µM | [10] 15 µM | [11] 13.5 µM | [12] 15.7 µM | [13] 5.28 µM | [14] 23.2 µM | [15] 16.6 µM | [19] 19.5 µM | [16] 29.4 µM | [17] 16.1 µM | [20] 11.1 µM

Cc1nc2cc3ccccc3cc2[nH]c1=O
inactive: [2] > 100 µM | [3] 38.8 µM | [4] 85.1 µM | [5] > 100 µM | [6] > 100 µM | [7] > 100 µM | [8] > 100 µM | [9] 44 µM | [10] 51.1 µM | [11] 70.5 µM | [12] > 100 µM | [14] 47.5 µM | [15] > 100 µM | [19] 92.3 µM | [16] 80.2 µM | [17] > 100 µM | [18] 36.3 µM | [20] 54.8 µM

COc1cc(S(=O)(=O)Nc2nc(-c3ccc(N4C(=O)/C(=C/c5ccccc5[N+](=O)[O-])N=C4c4ccccc4)cc3)cs2)ccc1Cl
inactive: [1] > 100 µM | [2] > 100 µM | [3] 61.5 µM | [4] 73.1 µM | [5] 50.2 µM | [6] > 100 µM | [7] 67.1 µM | [8] > 100 µM | [9] 37.7 µM | [10] > 100 µM | [11] > 100 µM | [12] 47 µM | [14] 63.5 µM | [15] > 100 µM | [19] 89.9 µM | [16] > 100 µM | [17] > 100 µM | [18] 27 µM | [20] > 100 µM

C/C(=N\O)c1cccc(Nc2c3ccccc3nc3occc23)c1
inactive: [1] 8.07 µM | [2] 9.1 µM | [3] 3.58 µM | [4] 6.11 µM | [5] 5.78 µM | [6] 8.15 µM | [7] 2.24 µM | [8] 3.05 µM | [9] 4.25 µM | [10] 1.8 µM | [11] 13.7 µM | [12] 17.7 µM | [13] 3.07 µM | [15] 4.02 µM | [19] 17.1 µM | [16] 10.1 µM | [17] 7.03 µM | [18] 3.42 µM | [20] 7.18 µM

O=C(OCc1ccccc1)N1CCNCCNCCN(C(=O)OCc2ccccc2)CCNCC1
inactive: [1] 39.9 µM | [2] 12.1 µM | [3] 13 µM | [4] 29.6 µM | [5] 16.3 µM | [6] 16.6 µM | [7] 16.1 µM | [8] 16.2 µM | [9] 16.7 µM | [10] 41 µM | [11] 17.3 µM | [12] 41.6 µM | [13] 19.5 µM | [15] 15.3 µM | [19] 68.5 µM | [16] 24.8 µM | [17] 16.5 µM | [18] 17.7 µM | [20] 12.7 µM

OC1CCCN(C2(c3cccs3)CCCCC2)C1 (stereo not drawn)
inactive: [1] > 100 µM | [2] > 100 µM | [3] > 100 µM | [4] > 100 µM | [5] > 100 µM | [7] > 100 µM | [8] > 100 µM | [9] > 100 µM | [10] > 100 µM | [11] > 100 µM | [12] > 100 µM | [13] > 100 µM | [14] > 100 µM | [15] > 100 µM | [16] > 100 µM | [17] > 100 µM | [18] > 100 µM

C=C[C@]1(O)CCC[C@]2(C)C(=O)CCC12C (stereo partly drawn)
inactive: [1] > 100 µM | [2] > 100 µM | [3] > 100 µM | [4] > 100 µM | [5] > 100 µM | [6] > 100 µM | [7] > 100 µM | [8] > 100 µM | [9] > 100 µM | [10] > 100 µM | [11] > 100 µM | [12] > 100 µM | [13] > 100 µM | [14] > 100 µM | [15] > 100 µM | [19] > 100 µM | [17] > 100 µM | [18] > 100 µM | [20] > 100 µM
